This is an account of results in US12129244B2, “Modulators of Mas-related G-protein receptor X2 and related products and methods” (Escient Pharmaceuticals, Inc., priority 2022, dated 2024).

The experiment concerns the target T1, human MRGPRX2 (Homo sapiens, UniProt Q96LB1).
T1 construct: expressed in transfected cells
T1 sequence (Q96LB1 1-330): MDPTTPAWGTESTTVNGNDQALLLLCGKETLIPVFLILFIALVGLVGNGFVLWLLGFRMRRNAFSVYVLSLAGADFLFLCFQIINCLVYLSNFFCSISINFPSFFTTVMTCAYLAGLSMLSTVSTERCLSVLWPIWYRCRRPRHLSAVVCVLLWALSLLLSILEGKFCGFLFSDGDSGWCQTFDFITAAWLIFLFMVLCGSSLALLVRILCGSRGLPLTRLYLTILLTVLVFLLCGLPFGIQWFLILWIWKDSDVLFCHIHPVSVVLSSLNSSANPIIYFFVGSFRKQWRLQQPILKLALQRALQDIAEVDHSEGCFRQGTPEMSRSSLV
In words: MRGPRX2 activity: IP-One HTRF antagonist assay in CHO cells versus Cortistatin-14. It counts as cell-based. The following applies: CHO cells stably expressing human MRGPRX2; versus 0.3 uM Cortistatin-14 agonist; IP-1 HTRF. How it is done:
CHO cells stably transfected to express human MRGPRX2 were maintained in an incubator at 37° C. with 5% CO2 and grown in F12 (HAM) media with 10% fetal bovine serum (FBS), 1% Glutamax, 1% penicillin/streptomycin, 800 μg/mL Geneticin (G418), and 300 μg/mL Hygromycin B.
Cells were plated in a 384-well assay plate at 20,000 cells per well in 12 μL of Opti-MEM and kept in an incubator overnight. On the day of the assay, compounds solubilized at 10 mM in DMSO were added as a 10-point curve (30 uM final top concentration with 1:3 serial dilutions) using a Tecan D300E digital dispenser. Agonists were diluted in assay buffer (final concentrations of 5.7 mM Tris-HCl, 43 mM NaCl, 50 mM LiCl, pH=8) and 2 μL of the agonist Cortistatin-14 (CPC Scientific, catalog CORT-002) are added to each well. Final concentrations of agonists were 0.3 μM Cortistatin. Final concentrations of DMSO were kept consistent across the plate. Plates were incubated in the dark for 1 h at 37° C. and then for 1 h at room temperature. IP-1 standards and HTRF detection reagents were added according to the IP-One-Gq Kit purchased from Cisbio (part number 62IPAPEJ) and incubated in the dark for 1 h at room temperature. The plate was read on a Molecular Devices SpectraMax iD5 plate reader. The HTRF ratio was calculated from the raw data and graphed using GraphPad Prism to calculate an IC50 value for each compound.
The activity ranges are denoted as follows: “+++++” denotes antagonist activity <100 nM; “++++” denotes antagonist activity between 100 and 500 nM; “+++” denotes activity between 501 and 1000 nM; “[…]” denotes activity between 1001 and 2500 nM; and “+” denotes activity >2500 nM
In general terms: In TR-FRET formats the signal depends on donor and acceptor labels being close together.

Take `Cc1cc(C(=O)N[C@@H]2CCC[C@H](Nc3cc(C(F)(F)F)nc4ccc(Cl)cc34)C2)c(C)[nH]1` [Example 4-426]: the IC50 (as a rule, the point on the concentration scale where inhibition reaches its midpoint) was less than 100 nM.

Consider `O=C(N[C@@H]1CCC[C@H](Nc2cc(C(F)(F)F)nc3ccccc23)C1)c1ccc2[nH]c(-c3ccncc3)nc2c1` [Example 4-181], for which the IC50 was 100 to 500 nM.

Take `O=C(N[C@@H]1CCC[C@H](Nc2cc(C(F)(F)F)nc3ccc(Cl)cc23)C1)c1cnn(CCCl)c1` [Example 4-396]: the IC50 was less than 100 nM. With `CS(=O)(=O)Nc1ccc(C(=O)N[C@@H]2CCC[C@H](Nc3cc(C(F)(F)F)nc4ccc(F)cc34)C2)cc1` [Example 4-317], the half-inhibitory concentration (IC50) was less than 100 nM.

In turn, `O=C(N[C@@H]1CCC[C@H](Nc2cc(C(F)(F)F)nc3ccc(Cl)cc23)C1)c1ccc(N2CC2)cc1` [Example 4-415] showed an IC50 of less than 100 nM. In turn, `O=C(N[C@@H]1CCC[C@H](Nc2cc(C(F)(F)F)nc3ccc(Cl)cc23)C1)c1cccc2[nH]ccc12` [Example 4-223] gave a half-maximal inhibitory concentration (IC50) of less than 100 nM.

On to `CC(C)(C)OC(=O)N1CCC[C@@H](n2cc(C(=O)N[C@@H]3CCC[C@H](Nc4cc(C(F)(F)F)nc5ccc(Cl)cc45)C3)cn2)C1` [Example 5-13], for which the IC50 was less than 100 nM. For `CS(=O)(=O)Nc1cccc(C(=O)N[C@@H]2CCC[C@H](Nc3cc(C(F)(F)F)nc4ccc(F)cc34)C2)c1` [Example 4-302] the value was less than 100 nM; for `CCn1ncc(C(=O)N[C@@H]2CCC[C@H](Nc3cc(C(F)(F)F)nc4ccc(Cl)cc34)C2)c1C` [Example 4-452], less than 100 nM. On to `CCCn1nccc1C(=O)N[C@@H]1CCC[C@H](Nc2cc(C(F)(F)F)nc3ccc(F)cc23)C1` [Example 4-325], for which the IC50 lay in the range of 100 to 500 nM. In turn, `CCc1ccc(C(=O)N[C@@H]2CCC[C@H](Nc3cc(C(F)(F)F)nc4ccccc34)C2)cc1` [Example 4-18] yielded an IC50 of 100 to 500 nM. Take `O=C(N[C@@H]1CCC[C@H](Nc2cc(C(F)(F)F)nc3ccc(Cl)cc23)C1)c1c[nH]nc1C(F)F` [Example 4-511]: the 50% inhibitory concentration (IC50) is less than 100 nM. In the case of `O=C(N[C@@H]1CCC[C@H](Nc2cc(C(F)(F)F)nc3ccc(Cl)cc23)C1)c1cn(C(F)F)nc1Cl` [Example 4-406], the half-maximal inhibitory concentration (IC50) was less than 100 nM. Under `O=C(CCc1cc(Br)ccc1F)N[C@@H]1CCC[C@H](Nc2cc(C(F)(F)F)nc3ccccc23)C1` (racemic) [Example 4-74] stands greater than 2500 nM; under `Cc1c(C(=O)N[C@@H]2CCC[C@H](Nc3cc(C(F)(F)F)nc4ccc(Cl)cc34)C2)ccn1CCF` [Example 5-1], less than 100 nM; under `O=C(N[C@@H]1CCC[C@H](Nc2cc(C(F)(F)F)nc3ccccc23)C1)c1coc2ccccc2c1=O` (racemic) [Example 4-111], greater than 2500 nM. As to `O=C(N[C@@H]1CCC[C@H](Nc2cc(C(F)(F)F)nc3ccc(Cl)cc23)C1)N1CCCC1` [Example 8-3], the IC50 was less than 100 nM.

Molecule `O=C(N[C@@H]1CCC[C@H](Nc2cc(C(F)(F)F)nc3ccc(Cl)cc23)C1)c1ncco1` [Example 4-424] returned an IC50 of less than 100 nM. For `CC(C#N)c1cccc(C(=O)N[C@@H]2CCC[C@H](Nc3cc(C(F)(F)F)nc4ccc(F)cc34)C2)c1` (stereo partly shown) [Example 4-282], the concentration for half-maximal inhibition (IC50) was less than 100 nM.

Take `O=C(N[C@@H]1CCC[C@H](Nc2cc(C(F)(F)F)nc3ccc(Cl)cc23)C1)c1cncc2cn[nH]c12` [Example 4-398]: the IC50 was less than 100 nM.

On to `CNc1ccccc1C(=O)N[C@@H]1CCC[C@H](Nc2cc(C(F)(F)F)nc3ccc(C)cc23)C1` [Example 4-165], for which the IC50 is 501 to 1000 nM. In the case of `Cn1ccc(C(=O)N[C@@H]2CCC[C@H](Nc3cc(C(F)(F)F)nc4ccc(Cl)cc34)C2)c1` [Example 4-416], the IC50 is less than 100 nM.

Take `CNc1cc(C(=O)N[C@@H]2CCC[C@H](Nc3cc(C(F)(F)F)nc4ccc(Cl)cc34)C2)ccc1OC` [Example 4-413]: the IC50 was less than 100 nM. Under `O=C(N[C@@H]1CCC[C@H](Nc2cc(C(F)(F)F)nc3ccc(Cl)cc23)C1)c1ccnc2cn[nH]c12` [Example 4-263] stands less than 100 nM. As to `Cn1cc2c(n1)CCN(C(=O)N[C@@H]1CCC[C@H](Nc3cc(C(F)(F)F)nc4ccc(Cl)cc34)C1)C2` [Example 8-16], the half-maximal inhibitory concentration (IC50) is less than 100 nM. Turning to `Cn1c(C(=O)N[C@@H]2CCC[C@H](Nc3cc(C(F)(F)F)nc4ccc(Cl)cc34)C2)cnc1Cl` [Example 4-412], the 50% inhibitory concentration (IC50) was less than 100 nM. In turn, `CCc1[nH]ccc1C(=O)N[C@@H]1CCC[C@H](Nc2cc(C(F)(F)F)nc3ccc(Cl)cc23)C1` [Example 4-427] had an IC50 of less than 100 nM. `CS(=O)(=O)Nc1cc(C(=O)N[C@@H]2CCC[C@H](Nc3cc(C(F)(F)F)nc4ccc(Cl)cc34)C2)ccc1F` [Example 4-258] yielded an IC50 of less than 100 nM. `CN(C)c1cccc(C(=O)N[C@@H]2CCC[C@H](Nc3cc(C(F)(F)F)nc4ccc(Cl)cc34)C2)c1` [Example 4-216]: the half-maximal inhibitory concentration (IC50) is 100 to 500 nM. Under `Cc1ccc2nc(C(F)(F)F)cc(N[C@H]3CCC[C@@H](NC(=O)c4cccc(N(C)C)c4)C3)c2c1` [Example 4-159] stands 100 to 500 nM; under `Nc1cnc(Cl)c(C(=O)N[C@@H]2CCC[C@H](Nc3cc(C(F)(F)F)nc4ccc(Cl)cc34)C2)c1` [Example 4-418], less than 100 nM. For `C=CC12CCC(C(=O)N[C@@H]3CCC[C@H](Nc4cc(C(F)(F)F)nc5ccccc45)C3)(CC1)CO2` [Example 4-171] the value was 501 to 1000 nM; for `O=C(N[C@@H]1CCC[C@H](Nc2cc(C(F)(F)F)nc3ccc(Cl)cc23)C1)c1cc(O)cc(O)c1` [Example 4-271], less than 100 nM. In turn, `Cc1nn(CC(F)(F)F)cc1C(=O)N[C@@H]1CCC[C@H](Nc2cc(C(F)(F)F)nc3ccc(Cl)cc23)C1` [Example 4-464] yielded an IC50 of less than 100 nM.

`O=C(N[C@@H]1CCC[C@H](Nc2cc(C(F)(F)F)nc3ccc(Cl)cc23)C1)c1ccc(C(=O)N2CCOCC2)cc1` [Example 3-20]: the concentration for half-maximal inhibition (IC50) was less than 100 nM.

As for `O=C(N[C@@H]1CCC[C@H](Nc2cc(C(F)(F)F)nc3ccc(Cl)cc23)C1)c1cccc(Cl)c1` [Example 4-249], the 50% inhibitory concentration (IC50) fell in the range of 100 to 500 nM. For `Cc1cc(C(=O)N[C@@H]2CCC[C@H](Nc3cc(C(F)(F)F)nc4ccc(Cl)cc34)C2)co1` [Example 4-419] the value was less than 100 nM; for `CC1C(C(=O)N[C@@H]2CCC[C@H](Nc3cc(C(F)(F)F)nc4ccccc34)C2)CC2CC1C2(C)C` (mixture of isomers) [Example 4-64], greater than 2500 nM; for `O=C(N[C@@H]1CCC[C@H](Nc2cc(C(F)(F)F)nc3ccc(Cl)cc23)C1)c1ccc2nncn2c1` [Example 4-245], less than 100 nM. On to `Cc1c(C(=O)N[C@@H]2CCC[C@H](Nc3cc(C(F)(F)F)nc4ccc(Cl)cc34)C2)ccn1CC(F)F` [Example 5-5], for which the IC50 was less than 100 nM.

The molecule `CC(C)S(=O)(=O)Nc1cccc(C(=O)N[C@@H]2CCC[C@H](Nc3cc(C(F)(F)F)nc4ccc(F)cc34)C2)c1` [Example 4-297] had a half-maximal inhibitory concentration (IC50) of less than 100 nM. Consider `CS(=O)(=O)Nc1ccc(C(=O)N[C@@H]2CCC[C@H](Nc3cc(C(F)(F)F)nc4ccc(Cl)cc34)C2)cc1` [Example 4-240], for which the IC50 was less than 100 nM.

`Cn1cc(C(=O)N[C@@H]2CCC[C@H](Nc3cc(C(F)(F)F)nc4ccc(Cl)cc34)C2)c(C(F)F)n1` [Example 4-404] yielded an IC50 of less than 100 nM. In turn, `O=C(N[C@@H]1CCC[C@H](Nc2cc(C(F)(F)F)nc3ccc(Cl)cc23)C1)c1cnn(C2CCCCC2)c1` [Example 4-487] showed an IC50 of less than 100 nM. `CN(C)Cc1ccc(C(=O)N[C@@H]2CCC[C@H](Nc3cc(C(F)(F)F)nc4ccc(Cl)cc34)C2)cc1` [Example 4-410] came in with an IC50 of less than 100 nM.

`COC(=O)c1cccc(C(=O)N[C@@H]2CCC[C@H](Nc3cc(C(F)(F)F)nc4ccccc34)C2)c1` [Example 3-5] came in with a 50% inhibitory concentration (IC50) of 100 to 500 nM.

`N#Cc1cc(C(=O)N[C@@H]2CCC[C@H](Nc3cc(C(F)(F)F)nc4ccc(Cl)cc34)C2)c[nH]1` [Example 4-408]: the IC50 is less than 100 nM.

In the case of `O=C(N[C@@H]1CCC[C@H](Nc2cc(C(F)(F)F)nc3ccccc23)C1)C1COCCN1Cc1ccccc1` (mixture of isomers) [Example 4-31], the IC50 was greater than 2500 nM. `CNc1ccc(C(=O)N[C@@H]2CCC[C@H](Nc3cc(C(F)(F)F)nc4ccc(C)cc34)C2)cc1` [Example 4-130] had a half-inhibitory concentration (IC50) of less than 100 nM.
